According to BindingDB's records for doi:10.1016/j.ejmech.2017.05.048 (University of Auckland, 2017):

Assay: Inhibition of perforin (unknown origin)-mediated 51Cr-labelled human Jurkat cell lysis preincubated with protein for 30 mins followed by cell addition measured after 4 hrs by gamma counting method

SMILES | IC50
COC(=O)c1ccccc1S(=O)(=O)Nc1cncc(-c2ccc(-c3ccc4c(c3)CN(C)C4=O)s2)c1 | 2.9 µM
CN1Cc2cc(-c3ccc(-c4cncc(NS(=O)(=O)c5cccc(Cl)c5F)c4)s3)ccc2C1=O | 13 µM
CN1Cc2cc(-c3ccc(-c4cncc(NS(=O)(=O)c5ccc(-c6cnco6)cc5)c4)s3)ccc2C1=O | 3.05 µM
CN1Cc2cc(-c3ccc(-c4cncc(NS(=O)(=O)c5ccccc5OC(F)(F)F)c4)s3)ccc2C1=O | 17.7 µM
CN1Cc2cc(-c3ccc(-c4ccc(OC(F)(F)F)c(NS(=O)(=O)c5ccccn5)c4)s3)ccc2C1=O | > 20 µM
CN1Cc2cc(-c3ccc(-c4cncc(NC(=O)c5ccc(F)cc5F)c4)s3)ccc2C1=O | > 20 µM
CN1Cc2cc(-c3ccc(-c4cncc(NS(=O)(=O)c5ccc(Cl)cc5)c4)s3)ccc2C1=O | 5.39 µM
CN1Cc2cc(-c3ccc(-c4cccc(S(=O)(=O)Nc5ccccn5)c4)s3)ccc2C1=O | 8.92 µM
CN1Cc2cc(-c3ccc(-c4cncc(NS(=O)(=O)c5cccc(Cl)c5)c4)s3)ccc2C1=O | 2.42 µM
CN1Cc2cc(-c3ccc(-c4cncc(NS(=O)(=O)c5cccc(C(F)(F)F)c5)c4)s3)ccc2C1=O | 1.22 µM
CN1Cc2cc(-c3ccc(-c4cncc(NS(=O)(=O)c5cccc(C#N)c5)c4)s3)ccc2C1=O | > 20 µM
CCOC(=O)c1ccc(S(=O)(=O)Nc2cncc(-c3ccc(-c4ccc5c(c4)CN(C)C5=O)s3)c2)cc1 | 19.4 µM
CN1Cc2cc(-c3ccc(-c4cncc(NS(=O)(=O)c5ccccc5[N+](=O)[O-])c4)s3)ccc2C1=O | 6.65 µM
Cc1ccc(S(=O)(=O)Nc2cncc(-c3ccc(-c4ccc5c(c4)CN(C)C5=O)s3)c2)cc1Cl | 8.14 µM
CN1Cc2cc(-c3ccc(-c4cncc(NS(=O)(=O)c5cccnc5)c4)s3)ccc2C1=O | 15.1 µM
CN1Cc2cc(-c3ccc(-c4cncc(NS(=O)(=O)c5ccc6c(c5)OCCO6)c4)s3)ccc2C1=O | > 20 µM
CN1Cc2cc(-c3ccc(-c4cncc(NS(=O)(=O)c5ccccc5F)c4)s3)ccc2C1=O | 2.03 µM
CN1Cc2cc(-c3ccc(-c4cc(NS(=O)(=O)c5ccccn5)ccc4F)s3)ccc2C1=O | > 20 µM
CN1Cc2cc(-c3ccc(-c4cnc(Cl)c(NS(=O)(=O)c5ccc(F)cc5F)c4)s3)ccc2C1=O | 1.03 µM
CN1Cc2cc(-c3ccc(-c4ccc(NS(=O)(=O)c5ccc(F)cc5F)nc4)s3)ccc2C1=O | > 20 µM
CN1Cc2cc(-c3ccc(-c4cncc(NS(=O)(=O)c5ccc(F)c(F)c5)c4)s3)ccc2C1=O | 18.6 µM
CN1Cc2cc(-c3ccc(-c4cncc(NS(=O)(=O)c5ccccc5Br)c4)s3)ccc2C1=O | 2.66 µM
CN1Cc2cc(-c3ccc(-c4cncc(NS(=O)(=O)c5ccc(I)cc5)c4)s3)ccc2C1=O | 5 µM
COc1ccc(S(=O)(=O)Nc2cncc(-c3ccc(-c4ccc5c(c4)CN(C)C5=O)s3)c2)cc1 | 6.27 µM

SMILES | IC50
COC(=O)c1cccc(S(=O)(=O)Nc2cncc(-c3ccc(-c4ccc5c(c4)CN(C)C5=O)s3)c2)c1 | 7.77 µM
CN1Cc2cc(-c3ccc(-c4cnc(F)c(NS(=O)(=O)c5ccccn5)c4)s3)ccc2C1=O | 4.1 µM
COc1ccc(-c2ccc(-c3ccc4c(c3)CN(C)C4=O)s2)cc1S(=O)(=O)Nc1ccccn1 | 9.68 µM
Cc1ccc(S(=O)(=O)Nc2ccccn2)cc1-c1ccc(-c2ccc3c(c2)CN(C)C3=O)s1 | > 20 µM
Cc1ccc(NS(=O)(=O)c2ccccn2)cc1-c1ccc(-c2ccc3c(c2)CN(C)C3=O)s1 | 15.4 µM
COc1ncc(-c2ccc(-c3ccc4c(c3)CN(C)C4=O)s2)cc1NS(=O)(=O)c1ccc(F)cc1F | 3.56 µM
CN1Cc2cc(-c3ccc(-c4cnc(F)c(NS(=O)(=O)c5ccc(F)cc5F)c4)s3)ccc2C1=O | 1.99 µM
CN1Cc2cc(-c3ccc(-c4cncc(S(=O)(=O)Nc5ccc(F)cc5F)c4)s3)ccc2C1=O | 2.24 µM
CN1Cc2cc(-c3ccc(-c4ccnc(NS(=O)(=O)c5ccc(F)cc5F)c4)s3)ccc2C1=O | 4.7 µM
CN1Cc2cc(-c3ccc(-c4cncc(NS(=O)(=O)c5ccc(F)cc5)c4)s3)ccc2C1=O | 9.65 µM
CN1Cc2cc(-c3ccc(-c4cncc(NS(=O)(=O)c5cccc(F)c5)c4)s3)ccc2C1=O | 20 µM
CN1Cc2cc(-c3ccc(-c4cncc(NS(=O)(=O)c5c(F)cc(F)cc5F)c4)s3)ccc2C1=O | 1.76 µM
CN1Cc2cc(-c3ccc(-c4cncc(NS(=O)(=O)c5ccc(Cl)c(Cl)c5)c4)s3)ccc2C1=O | 1.32 µM
CN1Cc2cc(-c3ccc(-c4cncc(NS(=O)(=O)c5ccc(Cl)cc5Cl)c4)s3)ccc2C1=O | 15 µM
CN1Cc2cc(-c3ccc(-c4cncc(NS(=O)(=O)c5cccc(Br)c5)c4)s3)ccc2C1=O | 2.11 µM
CN1Cc2cc(-c3ccc(-c4cncc(NS(=O)(=O)c5ccc(Br)cc5Br)c4)s3)ccc2C1=O | 2.87 µM
COc1ccccc1S(=O)(=O)Nc1cncc(-c2ccc(-c3ccc4c(c3)CN(C)C4=O)s2)c1 | 14.8 µM
COc1cccc(S(=O)(=O)Nc2cncc(-c3ccc(-c4ccc5c(c4)CN(C)C5=O)s3)c2)c1 | 2.56 µM
CN1Cc2cc(-c3ccc(-c4cncc(NS(=O)(=O)c5cccc(OC(F)(F)F)c5)c4)s3)ccc2C1=O | 1.42 µM
CN1Cc2cc(-c3ccc(-c4cncc(NS(=O)(=O)c5ccc(OC(F)(F)F)cc5)c4)s3)ccc2C1=O | > 20 µM
CN1Cc2cc(-c3ccc(-c4cncc(NS(=O)(=O)c5ccccc5C(F)(F)F)c4)s3)ccc2C1=O | 1.45 µM
CN1Cc2cc(-c3ccc(-c4cncc(NS(=O)(=O)c5ccc(C(F)(F)F)cc5)c4)s3)ccc2C1=O | > 20 µM
CN1Cc2cc(-c3ccc(-c4cncc(NS(=O)(=O)c5cc(C(F)(F)F)cc(C(F)(F)F)c5)c4)s3)ccc2C1=O | > 20 µM
CN1Cc2cc(-c3ccc(-c4cncc(NS(=O)(=O)c5ccccc5C#N)c4)s3)ccc2C1=O | 9.17 µM

SMILES | IC50
CN1Cc2cc(-c3ccc(-c4cncc(NS(=O)(=O)c5ccc(C#N)cc5)c4)s3)ccc2C1=O | 5.17 µM
COC(=O)c1ccc(S(=O)(=O)Nc2cncc(-c3ccc(-c4ccc5c(c4)CN(C)C5=O)s3)c2)cc1 | 8.16 µM
CN1Cc2cc(-c3ccc(-c4cncc(NS(=O)(=O)c5ccc(C(=O)O)cc5)c4)s3)ccc2C1=O | 0.75 µM
CN1Cc2cc(-c3ccc(-c4cncc(NS(=O)(=O)c5ccccc5S(C)(=O)=O)c4)s3)ccc2C1=O | 6.8 µM
CN1Cc2cc(-c3ccc(-c4cncc(NS(=O)(=O)c5ccc(S(C)(=O)=O)cc5)c4)s3)ccc2C1=O | > 20 µM
CN1Cc2cc(-c3ccc(-c4cncc(NS(=O)(=O)c5ccc([N+](=O)[O-])cc5)c4)s3)ccc2C1=O | 2.74 µM
Cc1cc(F)ccc1S(=O)(=O)Nc1cncc(-c2ccc(-c3ccc4c(c3)CN(C)C4=O)s2)c1 | 5.53 µM
CN1Cc2cc(-c3ccc(-c4cncc(NS(=O)(=O)c5ccc(F)c(C(F)(F)F)c5)c4)s3)ccc2C1=O | 3.75 µM
CN1Cc2cc(-c3ccc(-c4cncc(NS(=O)(=O)c5cc(Br)cc(C(F)(F)F)c5)c4)s3)ccc2C1=O | > 20 µM
CN1Cc2cc(-c3ccc(-c4cncc(NS(=O)(=O)c5ccccn5)c4)s3)ccc2C1=O | 1.07 µM
CN1Cc2cc(-c3ccc(-c4cncc(NS(=O)(=O)c5ccsc5)c4)s3)ccc2C1=O | 12.5 µM
CN1Cc2cc(-c3ccc(-c4cncc(NS(=O)(=O)c5ccc(-c6ccno6)s5)c4)s3)ccc2C1=O | 7.1 µM
Cc1cc(C)n(-c2ccc(S(=O)(=O)Nc3cncc(-c4ccc(-c5ccc6c(c5)CN(C)C6=O)s4)c3)cc2)n1 | 19.1 µM
Cc1ncsc1S(=O)(=O)Nc1cncc(-c2ccc(-c3ccc4c(c3)CN(C)C4=O)s2)c1 | 11.6 µM
CN1Cc2cc(-c3ccc(-c4cncc(NS(=O)(=O)c5ccccc5)c4)s3)ccc2C1=O | 8.46 µM
Cc1ccc(NS(=O)(=O)c2ccc(F)cc2F)cc1-c1ccc(-c2ccc3c(c2)CN(C)C3=O)s1 | > 20 µM
CN1Cc2cc(-c3ccc(-c4cncc(NS(=O)(=O)c5ccccc5Cl)c4)s3)ccc2C1=O | 4.01 µM
CN1Cc2cc(-c3ccc(-c4cncc(NS(=O)(=O)c5ccc(Br)cc5)c4)s3)ccc2C1=O | 8.77 µM
CN1Cc2cc(-c3ccc(-c4cccc(NS(=O)(=O)c5ccc(F)cc5F)c4)s3)ccc2C1=O | 5.74 µM
CN1Cc2cc(-c3ccc(-c4cncc(NS(=O)(=O)c5cccs5)c4)s3)ccc2C1=O | 1.07 µM
CN1Cc2cc(-c3ccc(-c4cncc(N(C)S(=O)(=O)c5ccc(F)cc5F)c4)s3)ccc2C1=O | 16.1 µM
CN1Cc2cc(-c3ccc(-c4cncc(NS(=O)(=O)c5ccc(C(F)(F)F)cc5Cl)c4)s3)ccc2C1=O | > 20 µM
